Source: publication PMC8967206, “Pyrimidine-5-carbonitrile based potential anticancer agents as apoptosis inducers through PI3K/AKT axis inhibition in leukaemia K562” (Journal of Enzyme Inhibition and Medicinal Chemistry, 2022)
Where two headings read alike, the source gives them in different places.

What was measured:
[1] = test system: leukaemia (K562) cell line; assay: MTT colorimetric cytotoxicity assay, K562; format: cell-based; settings: Homo sapiens, 48 h incubation, mean ± SD of three experiments
Description: (§2) Cytotoxicity of our sixteen innovative compounds 4(a–e), 5(a–d), 6, and 7(a–f) together with control was assessed by means of in-vitro toxicology assay kit, MTT based (Sigma Aldrich, St. Louis, MO) against MCF-7 and K562 cell lines incubated in 96 microwell plates and proceeded as reported[32]^,[33]. MTT (3-[4,5-dimethylthiazol-2-yl]-2,5-diphenyl tetrazolium bromide) method measures the activity of living cells through mitochondrial dehydrogenase. Mitochondrial dehydrogenases of viable cells cleave the tetrazolium ring, giving purple formazan crystals that are dissolved in acidified isopropanol and the resulting purple solution is measured spectrophotometrically. The change in cell number is proportional to the intensity of purple colour produced and the degree of cytotoxicity caused by the test compounds. The absorbance at a wavelength of 570 nm was measured using (ROBONIK P2000 spectrophotometer) and the background absorbance of multi-well plates at 690 nm then the absorbance at 690 nm was subtracted from the 570 nm measurement. Five concentrations from each test compound ranging from (0.04 to 100 µM) were prepared and the experiments were done in triplicate.

[2] = test system: breast cancer (MCF-7) cell line; assay: MTT colorimetric cytotoxicity assay, MCF-7; format: cell-based; settings: Homo sapiens, MCF7, 48 h incubation, mean ± SD of three experiments
Description: as §2

PI3Kγ = biological target: T1, PI3Kγ (Homo sapiens, UniProt P48736); assay: PI3K enzyme inhibition assay (ADP-Glo), PI3Kγ; format: biochemical; settings: mean ± SD of three experiments
T1 construct: purchased BPS Bioscience, San Diego, CA
Description: (§3) The inhibition activities of 4d and 7f against PI3K enzyme were detected using PI3K assay kits and ADP-Glo kinase assay as a detection buffer (BPS Bioscience, San Diego, CA). According to the manufacturer’s instructions, PI3K enzyme was diluted with 2.5x Kinase assay buffer to obtain 4 ng/µl. The assay was performed in 96 well plates as follows: 5 µl of PIP2 substrate was added to each well followed by 5 ul from each inhibitor except for the positive control and blanks where the inhibitor buffers were added instead. Of 5 ul of 12.5 µM ATP was added. The reactions were initiated by adding 10 µl of diluted PI3K enzyme to the positive control and inhibitors wells. Plate was carefully shaked and was incubated at 30 °C for 40 min. After the 40 min incubation, 25 µl of ADP-Glo reagent were added to each well. The plate was covered with aluminium foil and incubated at room temperature for another 45 min. Of 50 µl of Kinase Detection reagent was added to each well. Plate was covered with aluminium foil and incubated at room temperature for extra 30 min. Luminescence was measured using microplate reader. Four concentrations from the two tested compounds ranged from (0.1 to 100 µM) were prepared and the experiment was repeated in triplicate. […] IC50 values were calculated using dose-response curves and linear regression equation.

PI3Kδ = biological target: T2, PI3Kδ (Homo sapiens, UniProt O00329); assay: PI3K enzyme inhibition assay (ADP-Glo), PI3Kδ; format: biochemical; settings: mean ± SD of three experiments
T2 construct: purchased BPS Bioscience, San Diego, CA
Description: as §3

[3] = test system: normal fibroblast cell line (WI-38); assay: Cytotoxicity on normal fibroblast cell line; format: cell-based; settings: WI-38 versus K562
[4] = Cytotoxicity on normal fibroblast cell line; format: cell-based; settings: human, WI-38 normal fibroblast cells; non-tumorigenic cell line
AKT = assay: Western blot, AKT expression in K562; format: cell-based; settings: K562, 48 h; control 0.744
Description: (§1) K562 cells were treated with the most promising compound (7f), for 48 h. Protein from control and treated cells was harvested and the concentration was measured via Bradford protein assay (Bio-Rad, Hercules, CA). The samples were loaded and separated by sodium dodecyl sulphate (SDS)-polyacrylamide gel electrophoresis and then transferred onto a polyvinylidene difluoride (PVDF) membrane. Western blot analysis was performed according to previously described.

p-PI3K = assay: Western blot, p-PI3K expression in K562; format: cell-based; settings: K562, 48 h; control 0.639
Description: as §1

PI3K = assay: Western blot, PI3K expression in K562; format: cell-based; settings: K562, 48 h; control 0.881
Description: as §1

p-AKT = assay: Western blot, p-AKT expression in K562; format: cell-based; settings: K562, 48 h; control 0.692
Description: as §1

Cyclin D1 = assay: Western blot, Cyclin D1 expression in K562; format: cell-based; settings: K562, 48 h; control 0.849
Description: as §1

K562 cells [5] = assay: Annexin-V-FITC apoptosis assay; format: cell-based; settings: K562, 48 h
Description: Apoptosis induction was assayed by staining K562 cells with Annexin-V (fluorescein isothiocyanate) and the counterstaining PI using the Annexin-V-FITC/PI apoptosis detection kit (BD Biosciences, San Diego, CA) according to the manufacturer’s instructions. Cells were exposed to the tested compound for 48 h. After that, the cells were collected by trypsinisation and 0.5 × 10^6 cells and washed twice with phosphate-buffered saline (PBS) followed by staining with 5 µl Annexin-V-FITC and 5 µl PI in 1 × binding buffer for 15 min at room temperature in the dark. FACS Calibre flow cytometer (BD Biosciences, San Diego, CA)[26]^,[36]^,[37] was used for analyses.
Data of the current research highlighted that treating Leukaemia K562 cells for 48 h with the compound 7f caused an increase in the percentage of Annexin-V positive apoptotic cells both in the early and late stage which represents a total significant 17-fold increase compared to the control.

[6] = In-vivo acute toxicity study; settings: rat, 2 g/kg, female rats, po, observed 14 d, read-out: median lethal dose (LD50)
Description: Five female rats (180–200 g) were used in this test. The animals were fasted for 24 h prior to administration of the test compound. The compound was administered in a dose of 2 g/kg body weight, po . Animals are observed individually and the mortalities were recorded at least once during the first 30 min after dosing, periodically during the first 24 h and daily afterwards, for a total of 14 d[40]. All animals received humane care and experimental procedures were carried out in strict accordance with the health and care guidelines for experimental animals. All experimental operations performed on rats were approved by the Animal Experiment Ethics Committee of Heliopolis University (Approval number HU.REC.A0.23-2021).
The toxicological profile of the most promising synthesised anticancer compound 7f was evaluated in female rats using the reported method in OECD guidelines. […]

NFkb = assay: Western blot, NFkb expression in K562; format: cell-based; settings: K562, 48 h; control 0.719
Description: as §1

K562 cells [7] = assay: Cell cycle analysis (PI flow cytometry); format: cell-based
Description: Cell cycle analysis was determined by propidium iodide (PI) flow cytometry kit/BD. K562 cells were treated by compound 7f at its IC50 concentration. Then cells were washed in PBS, fixed in cold 70% ethanol for 30 min, washed twice in PBS, and centrifuged to remove supernatant, after that, cells were treated with 0.1 mg/ml ribonuclease, stained with 0.05 mg/ml PI. The results were analysed by flow cytometry using FACS calibre and cell cycle distribution were calculated and accomplished as reported[26]^,[34]^,[35].
As reported in the literature, inhibition of PI3K/AKT pathway affects the cell survival and proliferation[8]^,[9]. Thus, to investigate the effect of compound 7f in PI3K/Akt dual inhibition on cell cycle progression, cell cycle analysis was performed by flowcytometric analysis as reported[34]^,[35] on K562 cells treated with compound 7f. The outcomes presented in Table 4 indicated the interference with the cell cycle distribution, following 7f treatment, where there was a marked increase in the cells in pre-G1 phase by nearly 17-fold as compared to the control.

AKT-1 = AKT-1 (Homo sapiens, UniProt P31749); assay: AKT enzyme inhibition assay (ELISA, cell lysates); format: biochemical; settings: mean ± SD of three experiments
Description: In brief, cell lysates were collected after treatment with the tested compounds using lysis buffer and centrifuged at 13,000 rpm for 15 min to obtain the cytosolic fraction. Samples were soaked with the kinase diluted buffer and the reaction was initiated by adding 10 µl of diluted ATP to each well, except blanks. Plate was incubated at 30 °C for up to 90 min covered with an adhesive plate sealer with gentle, shaking every 20 min. The reaction was stopped by emptying contents of each well. Of 40 µl of the phospho-specific substrate antibody was added except blank then incubated incubate at room temperature for 60 min, with shaking every 20 min. The liquid was aspirated and the wells washed three times with 1X washing buffer. After the last wash, liquid was aspirated and 40 µl of the diluted Anti-Rabbit IgG: HRP conjugate was added except blank, and incubated at room temperature for 30 min with shaking every 10 min. Plate was washed as described before. Of 60 µl of the TMB Substrate was added to each well and incubated at room temperature for 30–60 min. The reaction was stopped by adding 20 µl of the stop solution to each well. Absorbance was measured at 450 nm. Four concentrations from the tested compounds were prepared ranged from 0.1 to 100 µM and the assay was done in triplicates. […] LY2780301 compound was used as the positive control.

[8] = design: method as in PMID 32659486; settings: printed in Figure 4, target not given; cited from earlier work
[9] = K562, treated at IC50 concentration

T2 sequence (O00329 whole entry): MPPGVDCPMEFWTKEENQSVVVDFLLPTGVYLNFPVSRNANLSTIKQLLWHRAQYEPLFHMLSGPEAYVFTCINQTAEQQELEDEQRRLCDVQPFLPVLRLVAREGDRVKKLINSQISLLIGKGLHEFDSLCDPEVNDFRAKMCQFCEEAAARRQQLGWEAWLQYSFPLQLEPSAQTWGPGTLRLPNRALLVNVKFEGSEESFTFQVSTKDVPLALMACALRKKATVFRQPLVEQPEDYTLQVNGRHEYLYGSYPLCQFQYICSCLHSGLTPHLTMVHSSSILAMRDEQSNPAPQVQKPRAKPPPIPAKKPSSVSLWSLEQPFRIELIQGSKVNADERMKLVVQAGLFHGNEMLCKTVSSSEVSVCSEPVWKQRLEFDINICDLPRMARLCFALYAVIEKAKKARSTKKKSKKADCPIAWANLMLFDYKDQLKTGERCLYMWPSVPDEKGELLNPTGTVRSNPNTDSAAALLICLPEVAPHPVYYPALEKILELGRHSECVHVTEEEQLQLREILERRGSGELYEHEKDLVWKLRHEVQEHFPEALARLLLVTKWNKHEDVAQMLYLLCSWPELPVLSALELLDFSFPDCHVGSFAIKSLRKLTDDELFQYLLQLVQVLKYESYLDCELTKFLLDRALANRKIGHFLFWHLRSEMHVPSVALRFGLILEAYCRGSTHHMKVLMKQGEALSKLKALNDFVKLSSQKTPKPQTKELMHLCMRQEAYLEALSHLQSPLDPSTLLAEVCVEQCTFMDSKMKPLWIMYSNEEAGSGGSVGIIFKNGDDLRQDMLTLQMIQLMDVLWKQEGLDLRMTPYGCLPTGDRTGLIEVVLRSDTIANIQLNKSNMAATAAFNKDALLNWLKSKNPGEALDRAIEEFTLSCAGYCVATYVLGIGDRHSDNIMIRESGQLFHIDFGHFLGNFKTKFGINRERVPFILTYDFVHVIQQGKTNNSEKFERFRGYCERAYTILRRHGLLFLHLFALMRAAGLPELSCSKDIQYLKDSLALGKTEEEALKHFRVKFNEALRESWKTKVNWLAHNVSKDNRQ
T2 sequence (P27986 whole entry partner): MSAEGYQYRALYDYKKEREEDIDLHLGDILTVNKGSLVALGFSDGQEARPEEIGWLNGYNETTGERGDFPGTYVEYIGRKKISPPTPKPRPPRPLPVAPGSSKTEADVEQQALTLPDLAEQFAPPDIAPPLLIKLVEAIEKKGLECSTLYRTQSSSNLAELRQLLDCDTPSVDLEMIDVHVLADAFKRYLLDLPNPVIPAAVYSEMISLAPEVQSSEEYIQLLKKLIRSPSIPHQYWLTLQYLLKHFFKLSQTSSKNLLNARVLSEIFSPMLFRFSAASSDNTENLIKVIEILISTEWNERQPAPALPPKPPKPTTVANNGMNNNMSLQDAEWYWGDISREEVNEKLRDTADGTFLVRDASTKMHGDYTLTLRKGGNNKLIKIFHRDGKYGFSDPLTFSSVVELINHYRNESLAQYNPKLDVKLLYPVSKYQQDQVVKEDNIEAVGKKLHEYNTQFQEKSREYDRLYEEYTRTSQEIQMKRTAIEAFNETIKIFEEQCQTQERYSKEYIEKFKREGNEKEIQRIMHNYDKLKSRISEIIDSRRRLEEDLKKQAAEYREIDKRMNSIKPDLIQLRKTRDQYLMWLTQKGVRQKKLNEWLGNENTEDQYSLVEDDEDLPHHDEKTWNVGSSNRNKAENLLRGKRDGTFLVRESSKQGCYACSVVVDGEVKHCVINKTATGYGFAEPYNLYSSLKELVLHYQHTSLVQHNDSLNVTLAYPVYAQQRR
T1 sequence (P48736 whole entry): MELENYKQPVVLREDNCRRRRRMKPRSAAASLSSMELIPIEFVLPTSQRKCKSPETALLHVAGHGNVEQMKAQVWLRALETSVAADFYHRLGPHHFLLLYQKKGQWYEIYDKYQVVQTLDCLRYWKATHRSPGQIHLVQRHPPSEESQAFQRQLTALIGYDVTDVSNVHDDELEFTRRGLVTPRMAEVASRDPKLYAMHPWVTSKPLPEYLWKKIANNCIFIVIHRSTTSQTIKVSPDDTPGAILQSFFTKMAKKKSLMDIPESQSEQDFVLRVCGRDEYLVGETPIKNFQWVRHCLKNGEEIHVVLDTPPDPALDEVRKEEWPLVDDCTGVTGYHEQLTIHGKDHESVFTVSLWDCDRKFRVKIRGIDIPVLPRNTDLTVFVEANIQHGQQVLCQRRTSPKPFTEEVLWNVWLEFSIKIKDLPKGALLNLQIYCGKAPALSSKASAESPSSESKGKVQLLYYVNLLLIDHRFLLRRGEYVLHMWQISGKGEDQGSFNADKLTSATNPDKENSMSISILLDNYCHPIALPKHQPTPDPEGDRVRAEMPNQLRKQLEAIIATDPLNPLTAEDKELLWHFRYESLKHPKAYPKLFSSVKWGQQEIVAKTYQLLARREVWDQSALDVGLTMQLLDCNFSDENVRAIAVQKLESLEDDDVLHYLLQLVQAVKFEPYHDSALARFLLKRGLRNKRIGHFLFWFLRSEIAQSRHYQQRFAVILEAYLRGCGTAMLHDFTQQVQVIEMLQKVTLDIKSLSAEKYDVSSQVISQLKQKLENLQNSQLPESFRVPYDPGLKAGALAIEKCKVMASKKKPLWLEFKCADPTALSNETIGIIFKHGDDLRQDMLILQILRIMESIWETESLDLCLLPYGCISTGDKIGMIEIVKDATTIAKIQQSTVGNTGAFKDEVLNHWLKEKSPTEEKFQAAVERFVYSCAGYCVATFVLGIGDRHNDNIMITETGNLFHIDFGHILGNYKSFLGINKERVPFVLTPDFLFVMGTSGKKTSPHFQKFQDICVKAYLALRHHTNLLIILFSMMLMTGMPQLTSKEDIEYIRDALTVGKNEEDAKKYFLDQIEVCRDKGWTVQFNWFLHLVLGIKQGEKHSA
Chain of AKT-1 (P31749 whole entry): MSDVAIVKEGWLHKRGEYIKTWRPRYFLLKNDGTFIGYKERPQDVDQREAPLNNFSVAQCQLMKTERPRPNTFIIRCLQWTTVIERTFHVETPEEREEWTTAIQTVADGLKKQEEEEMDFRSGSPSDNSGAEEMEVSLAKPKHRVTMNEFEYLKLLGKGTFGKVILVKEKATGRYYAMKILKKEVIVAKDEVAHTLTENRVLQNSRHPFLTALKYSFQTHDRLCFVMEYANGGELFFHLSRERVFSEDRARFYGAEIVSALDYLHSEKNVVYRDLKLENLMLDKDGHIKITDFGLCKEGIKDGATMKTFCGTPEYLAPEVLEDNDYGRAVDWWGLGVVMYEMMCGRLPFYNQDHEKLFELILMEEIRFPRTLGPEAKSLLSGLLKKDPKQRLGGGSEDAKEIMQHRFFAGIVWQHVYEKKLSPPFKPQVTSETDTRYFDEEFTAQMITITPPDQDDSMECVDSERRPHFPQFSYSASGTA

Structure (SMILES): COc1ccc(-c2nc(SC)nc(N3CCNCC3)c2C#N)cc1 [4a, 4-(4-Methoxyphenyl)-2-(methylthio)-6-(piperazin-1-yl)pyrimidine-5-carbonitrile]
- IC50 [1]: 7.97 ± 0.38 µM
- IC50 [2]: 2.54 ± 0.14 µM

Structure (SMILES): COc1ccc(-c2nc(SC)nc(N3CCN(C)CC3)c2C#N)cc1 [4b, 4-(4-Methoxyphenyl)-6-(4-methylpiperazin-1-yl)-2-(methylthio)pyrimidine-5-carbonitrile]
- IC50 [1]: 93.6 ± 4.44 µM
- IC50 [2]: 56.3 ± 3.06 µM

Structure (SMILES): COc1ccc(-c2nc(SC)nc(N3CCN(c4ccccc4)CC3)c2C#N)cc1 [4c, 4-(4-Methoxyphenyl)-2-(methylthio)-6-(4-phenylpiperazin-1-yl)pyrimidine-5-carbonitrile]
- IC50 [1]: 3.86 ± 0.18 µM
- IC50 [2]: 6.64 ± 0.36 µM

Structure (SMILES): COc1ccc(-c2nc(SC)nc(N3CCN(c4ccccc4F)CC3)c2C#N)cc1 [4d, 4-(4-(2-Fluorophenyl)piperazin-1-yl)-6-(4-methoxyphenyl)-2-(methylthio)pyrimidine-5-carbonitrile]
- IC50 [1]: 1.06 ± 0.05 µM
- IC50 [2]: 0.8 ± 0.25 µM
- IC50 (PI3Kγ): 35.1 ± 1.82 µM
- melting point: 142 to 144 °C
- IC50 (PI3Kδ): 23.9 ± 1.2 µM
- SI (selectivity index) [3]: 109.72
- IC50 [4]: 116 ± 7.03 µM

Structure (SMILES): COc1ccc(-c2nc(SC)nc(N3CCN(c4ccccc4OC)CC3)c2C#N)cc1 [4e, 4-(4-Methoxyphenyl)-6-(4-(2-methoxyphenyl)piperazin-1-yl)-2-(methylthio)pyrimidine-5-carbonitrile]
- IC50 [1]: 34.8 ± 1.65 µM
- IC50 [2]: 15.6 ± 0.85 µM
- melting point: 170 to 172 °C

Structure (SMILES): COc1ccc(-c2nc(SC)nc(Nc3ccc(C)cc3)c2C#N)cc1 [5a, 4-(4-Methoxyphenyl)-2-(methylthio)-6-(p-tolylamino)pyrimidine-5-carbonitrile]
- IC50 [1]: 26.3 ± 1.25 µM
- IC50 [2]: 21.3 ± 1.16 µM
- melting point: 270 to 272 °C

Structure (SMILES): COc1ccc(Nc2nc(SC)nc(-c3ccc(OC)cc3)c2C#N)cc1 [5b, 4-(4-Methoxyphenyl)-6-((4-methoxyphenyl)amino)-2-(methylthio)pyrimidine-5-carbonitrile]
- IC50 [1]: 46.3 ± 2.2 µM
- IC50 [2]: 125 ± 6.82 µM
- melting point: 238 to 240 °C

Structure (SMILES): COc1ccc(-c2nc(SC)nc(Nc3ccc(Cl)cc3)c2C#N)cc1 [5c]
- IC50 [1]: 5.82 ± 0.28 µM
- IC50 [2]: 46.9 ± 2.55 µM

Structure (SMILES): COc1ccc(-c2nc(SC)nc(Nc3ccc(Br)cc3)c2C#N)cc1 [5d, 4-((4-Bromophenyl)amino)-6-(4-methoxyphenyl)-2-(methylthio)pyrimidine-5-carbonitrile]
- IC50 [1]: 5.52 ± 0.26 µM
- IC50 [2]: 15.7 ± 0.85 µM

Structure (SMILES): COc1ccc(-c2nc(SC)nc(NN=Cc3ccc(C)cc3)c2C#N)cc1 [7a, 4–(4-Methoxyphenyl)-6-(2-(4-methylbenzylidene)hydrazineyl)-2-(methylthio)pyrimidine-5-carbonitrile]
- IC50 [1]: 22.8 ± 1.08 µM
- IC50 [2]: 30.5 ± 1.66 µM
- melting point: 246 to 248 °C

Structure (SMILES): COc1ccc(C=NNc2nc(SC)nc(-c3ccc(OC)cc3)c2C#N)cc1 [7b, 4-(2-(4-Methoxybenzylidene)hydrazineyl)-6-(4-methoxyphenyl)-2-(methylthio)pyrimidine-5-carbonitrile]
- IC50 [1]: 16.8 ± 0.8 µM
- IC50 [2]: 22.9 ± 1.24 µM
- melting point: 244 to 246 °C

Structure (SMILES): COc1ccc(-c2nc(SC)nc(NN=Cc3ccc(Cl)cc3)c2C#N)cc1 [7c, 4-(2-(4-Chlorobenzylidene)hydrazineyl)-6-(4-methoxyphenyl)-2-(methylthio)pyrimidine-5-carbonitrile]
- IC50 [1]: 3.76 ± 0.18 µM
- IC50 [2]: 7.42 ± 0.4 µM
- melting point: 266 to 268 °C

Structure (SMILES): COc1ccc(-c2nc(SC)nc(NN=Cc3ccc(Br)cc3)c2C#N)cc1 [7d, 4-(2-(4-Bromobenzylidene)hydrazineyl)-6-(4-methoxyphenyl)-2-(methylthio)pyrimidine-5-carbonitrile]
- IC50 [1]: 44.3 ± 2.1 µM
- IC50 [2]: 56 ± 3.05 µM
- melting point: 246 to 248 °C

Structure (SMILES): COc1ccc(-c2nc(SC)nc(NN=Cc3ccc([N+](=O)[O-])cc3)c2C#N)cc1 [7e, 4–(4-Methoxyphenyl)-2-(methylthio)-6-(2-(4-nitrobenzylidene)hydrazineyl)pyrimidine-5-carbonitrile]
- IC50 [1]: 5.36 ± 0.25 µM
- IC50 [2]: 7.11 ± 0.39 µM
- melting point: 248 to 250 °C

Structure (SMILES): COc1ccc(-c2nc(SC)nc(NN=Cc3cc(OC)c(OC)c(OC)c3)c2C#N)cc1 [7f, 4-(4-Methoxyphenyl)-2-(methylthio)-6-(2-(3,4,5-trimethoxybenzylidene)hydrazineyl)pyrimidine-5-carbonitrile]
- Western blot [OD] AKT (AKT): 0.402 OD
- IC50 [1]: 2.62 ± 0.12 µM
- Western blot [OD] p-PI3K (p-PI3K): 0.281 OD
- Western blot [OD] PI3K (PI3K): 0.219 OD
- Western blot [OD] p-AKT (p-AKT): 0.316 OD
- Western blot [OD] Cyclin D1 (Cyclin D1): 0.383 OD
- IC50 [2]: 3.22 ± 0.18 µM
- Apoptosis% Early (K562 cells [5]): 3.19%
- Apoptosis% Late (K562 cells [5]): 19.04%
- Apoptosis% Total (K562 cells [5]): 31.72%
- Necrosis (K562 cells [5]): 9.49%
- Total increase of Annexin-V positive apoptotic cells compared to the control (K562 cells [5]): 17 fold
- IC50 (PI3Kγ): 6.99 ± 0.36 µM
- LD50 at 14 d [6]: > 2000 mg/kg
- Western blot [OD] NFkb (NFkb): 0.402 OD
- IC50 (PI3Kδ): 4.01 ± 0.55 µM
- SI (selectivity index) [3]: 13.29
- IC50 [4]: 34.8 ± 2.11 µM
- Cell cycle analysis, Comment (K562 cells [7]; K562): Cell growth arrest at S phase
- Increase in S-phase compared to the control (K562 cells [7]; K562): ~1.3 fold
- Increase in cells in pre-G1 phase compared to the control (K562 cells [7]; K562): ~17 fold
- DNA content % %G0-G1 (K562 cells [7]; [9]): 44.97%
- DNA content % %Pre-G1 (K562 cells [7]; [9]): 31.72%

Structure (SMILES): O=c1cc(N2CCOCC2)oc2c(-c3ccccc3)cccc12 [LY294002, reference compound]
- IC50 (PI3Kδ): 13.4 ± 0.67 µM

Structure (SMILES): CN(C)CCn1cc(-c2ccc(F)c(C(F)(F)F)c2)nc1C1CCN(c2ncnc3c2CC(=O)N3)CC1 [LY2780301]
- IC50 (AKT-1): 4.62 ± 0.24 µM

Structure (SMILES): COc1ccc(-c2nc(N/N=C/c3c[nH]c4ccccc34)nc(N3CCOCC3)c2C#N)cc1 [VIII]
- IC50 [8]: 10.9 µM

Structure (SMILES): COc1ccc(-c2nc(SC)nc(NN)c2C#N)cc1 [compound 6, 4-Hydrazineyl-6-(4-methoxyphenyl)-2-(methylthio)pyrimidine-5-carbonitrile]
- IC50 [1]: 6.67 ± 0.32 µM
- IC50 [2]: 3.49 ± 0.19 µM
- melting point: 270 to 272 °C
